Read-outs that look alike come from different tables or passages of the source.
Legend:
[1] = subcutaneous; patient not affected by ACTH or Prednisone; several weeks of treatment; cited from earlier work
[2] = dogs, cited from earlier work
[3] = humans, cited from earlier work
in vivo = conditions: male, beagle, dog
Source text: This study was undertaken to determine the safety of Products X and Y, and to determine the pharmacokinetic profiles of Products X, Y, and a commercially available oral glucosamine formulation (Glucosamine) following a single oral and intravenous administration to beagle dogs. The pharmacokinetic profiles were examined for indications of sustained or slow release of glucosamine by Products X and Y.
A total of nine (9) male Beagle dogs were used during this study. The animals were assigned to three treatment groups of 3 animals/group. Group 1 received low dose Products X, Y and Glucosamine by oral administration on Days 1, 8 and 15, respectively. Group 2 animals received high dose Products X and Y by oral administration on Days 1 and 8, respectively, and Group 3 animals received low dose Products X and Y by intravenous injection on Days 1 and 8, respectively. Low and high dose animals were administered nominal dose levels of 21.4 mg/kg and 214 mg/kg, respectively. These levels approximated 1× and 10× the standard daily oral glucosamine consumption (1500 mg) for an average human (70 kg standard body weight). The commercial glucosamine was assumed to contain 100% active ingredient.
The following parameters were recorded throughout the study: mortality, clinical signs, body weight and clinical pathology (hematology, coagulation and clinical chemistry). Serial blood samples were collected from all animals for pharmacokinetic profiling following each dosing.
Samples were collected via the jugular vein, at: 0 (pre-dose), 15, 30, 60, 120 minutes post-dose. A 5 minute post-dose sample was included for Group 3.

Structure (SMILES) | symptoms of Crohn's Disease [1] | glucosamine found in urine ([2]; after 144 hours) | gastrointestinal absorption [2] | glucosamine found in urine ([3]; after 144 hours) [%] | gastrointestinal absorption [3] [%] | time of peak serum glucosamine level post-dose (in vivo) [min] | AUC (in vivo; po, 21.4 mg/kg) [ng·h/mL] | concentration at 120 minutes (in vivo; po, 21.4 mg/kg) [ng/mL] | ratio of glucosamine delivered into the serum (oral glucosamine = 100) (in vivo; po, 21.4 mg/kg) | group mean serum glucosamine level at 120 minutes post-dose (in vivo; po, 21.4 mg/kg, 120 minutes) [ng/mL]
Cl.N[C@H]1C(O)O[C@H](CO)[C@@H](O)[C@@H]1O (stereo partly drawn) [D-glucosamine-HCl] | symptoms stopped | – | – | – | – | – | – | – | – | –
N[C@H]1C(O)O[C@H](CO)[C@@H](O)[C@@H]1O (stereo partly shown) [Glucosamine, glucosamine] | – | about 10% | about 87% | ~11 | ~90 | 60 | 1650 | 533 ± 188 | 100 | 533

Source: US20050070500A1, “Method of modulating release of saccharides and uses thereof” (priority 2001, published 2005)
